# Experimental data taken from US8158621B2, “Methods of treating or preventing autoimmune diseases with 2,4-pyrimidinediamine compounds” (Rigel Pharmaceuticals, Inc., priority 2002, dated 2012).
# System: Human Jurkat T-cells (clone N)
# Assay: Jurkat T-cell activation (anti-TCR, CD69 upregulation)
# Type: cell-based
# Conditions: not given
# Outline: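 Jurkat cells in RPMI + 5% FBS preincubated with compound 1 h at 37 °C, then stimulated with anti-TCR C305 at 500 ng/ml for 20 h. CD69 surface expression stained with anti-CD69-APC and read by flow cytometry; IC50 versus solvent-only control.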
row,IC50 [µM],SMILES
1,5.34,Cc1noc(COc2ccc(Nc3nc(Nc4ccc5c(c4)OCCO5)ncc3F)cc2)n1 [Compound R935145]
2,2.65,Cn1nnnc1COc1ccc(Nc2nccc(Nc3cccc(O)c3)n2)cc1 [Compound R920917]
3,3.1,CNC(=O)COc1cc(Nc2ncc(F)c(Nc3cccc(O)c3)n2)ccc1OC [Compound R926829]
4,9.49,COC(=O)COc1cccc(Nc2ncc(F)c(Nc3cccc(O)c3)n2)c1 [Compound R945118]
5,6.35,CNC(=O)COc1ccc(Nc2ncc(F)c(Nc3ccc(C(C)(C)C)cc3)n2)cc1 [Compound R926712]
6,0.824,Cn1cc2cc(Nc3ncc(F)c(Nc4cccc(O)c4)n3)ccc2n1 [Compound R935299]
7,> 10,CCOC(=O)c1cnc(Nc2ccc(OCC(=O)NCC3CC3)cc2)nc1Nc1cccc(O)c1 [Compound R925838]
8,> 10,O=C(O)COc1cccc(Nc2ncc(F)c(Nc3cccc(O)c3)n2)c1 [Compound R945126]
9,6.76,CNC(=O)COc1cccc(Nc2ncc(F)c(Nc3ccc(-n4cnc(Cl)c4Cl)cc3)n2)c1 [Compound R926812]
10,3.43,CNC(=O)CNc1cccc(Nc2ncc(F)c(Nc3cccc(O)c3)n2)c1 [Compound R950218]
11,6.97,N#Cc1cnc(Nc2cccc(O)c2)nc1Nc1ccc(OCC(=O)NCC2CC2)cc1 [Compound R925845]

# Further lines, the compound ahead of its results:
row,SMILES,IC50 [µM]
1,CCOC(=O)COc1ccc(Nc2nc(Nc3ccc(OCC(=O)OCC)cc3)c([N+](=O)[O-])c(C(=O)OCC)n2)cc1 [Compound R926566],> 10
2,CNC(=O)C(C)(C)Oc1cccc(Nc2ncc(F)c(Nc3cccc(O)c3)n2)c1 [Compound R926913],5.65
3,Oc1cccc(Nc2nc(Nc3ccc4oc(CN5CCNCC5)cc4c3)ncc2F)c1 [Compound R926769],2.79
4,CS(=O)(=O)Nc1cccc(Nc2ncc(F)c(Nc3cccc(NS(C)(=O)=O)c3)n2)c1 [Compound R950100],5.67
5,CCOC(=O)COc1ccc(Nc2nc(Nc3ccc(OCC(=O)OCC)cc3)c(N)c(C(=O)OCC)n2)cc1 [Compound R926567],> 10
6,Nc1cccc(Nc2nc(Nc3cccc(NC(=O)CCC(N)C(=O)O)c3)ncc2F)c1 (racemic) [Compound R950255],> 10
7,NC(=O)Cn1c(=O)oc2ccc(Nc3ncc(F)c(Nc4ccc5c(c4)OCCO5)n3)cc21 [Compound R926847],11.8
8,CNC(=O)COc1cccc(Nc2ncc(F)c(Nc3ccc(C)c(C(F)(F)F)c3)n2)c1 [Compound R926922],6.12
9,CNC(=O)COc1cccc(Nc2ncc(F)c(Nc3ccc(OC)c(O)c3)n2)c1 [Compound R926834],2.57
10,OCCNc1cccc(Nc2ncc(F)c(Nc3cccc(NCCO)c3)n2)c1 [Compound R950181],2.69
11,CN(C)C(=O)COc1cccc(Nc2ncc(F)c(Nc3ccc4c(c3)OCCO4)n2)c1 [Compound R925755],1.91
12,COc1cc(C(=O)NS(=O)(=O)c2ccccc2C)ccc1Cn1ncc2cc(Nc3ncc(F)c(Nc4cccc(O)c4)n3)ccc21 [Compound R935340],> 10
13,CNC(=O)Cn1ncc2ccc(Nc3nc(Nc4ccc5c(c4)OCCO5)ncc3F)cc21 [Compound R935225],7.42
14,Fc1cnc(Nc2cccc(C(F)(F)F)c2)nc1Nc1ccc2c(c1)OCCO2 [Compound R926805],> 10
15,O=C(O)c1cnc(Nc2cccc(O)c2)nc1NC(C(=O)O)c1ccccc1 (stereo not drawn) [Compound R926535],> 10
16,CC(C)c1cccc(Nc2nc(Nc3cccc(OCC(=O)NC[C@@H](O)CO)c3)ncc2F)c1 [Compound R940307],2.06
17,CCOC(=O)COc1ccc(Nc2ncc(-c3nn[nH]n3)c(Nc3ccc(OCC(=O)OCC)cc3)n2)cc1 [Compound R925810],21.3
18,CNC(=O)COc1cccc(Nc2ncc(F)c(Nc3cccc(Cl)c3)n2)c1 [Compound R926832],2.99
19,Fc1cnc(Nc2ccc3cn[nH]c3c2)nc1Nc1ccc2c(c1)OCCO2 [Compound R935190],3.47
20,CNC(=O)COc1cccc(Nc2ncc(F)c(Nc3cccc(C(N)=O)c3)n2)c1 [Compound R940299],24.9
21,CC(C)NC(=O)COc1ccc(Nc2ncc(C#N)c(Nc3ccc(OCC(=O)NC(C)C)cc3)n2)cc1 [Compound R925861],20.2
22,Oc1cccc(Nc2nc(Nc3ccc4oc(CN5CCNCC5)cc4c3)ncc2F)c1 [Compound R926770],0.891
23,CNC(=O)COc1cccc(Nc2ncc(F)c(Nc3ccc(F)c(C)c3)n2)c1 [Compound R926923],7.2

# Same assay, conditions: Homo sapiens
row,SMILES,IC50 [µM]
1,O=[N+]([O-])c1cccc(Nc2ncc(F)c(Nc3cccc([N+](=O)[O-])c3)n2)c1 [Compound R950160],> 10
2,O=[N+]([O-])c1cc(Nc2ccnc(Nc3ccc(F)c([N+](=O)[O-])c3)n2)ccc1F [Compound R950152],2.65

# Same assay, conditions: Homo sapiens, Jurkat
row,IC50 [µM],SMILES
1,> 10,CCOc1ccc(Nc2cc(C(=O)OC)nc(Nc3ccc(OCC)cc3)n2)cc1 [Compound R926058]
2,7.59,CC(C)Oc1ccc(Nc2ncc(F)c(Nc3cccc(N)c3)n2)cc1 [Compound R950165]
3,7.62,Oc1ccc(Nc2ncc(F)c(Nc3ccc(O)cc3)n2)cc1 [Compound R926405]
4,> 10,Cc1ccc(Nc2ccnc(Nc3ccc(C)c(N)c3)n2)cc1N [Compound R950130]
5,5.59,Oc1cccc(Nc2nc(Nc3ccc4cc[nH]c4c3)ncc2F)c1 [Compound R926751]
6,> 10,Oc1cccc(Nc2cc(-c3ccccc3)nc(Nc3cccc(O)c3)n2)c1 [Compound R925812]

# Continued, compound first:
row,SMILES,IC50 [µM]
1,O=C(c1ccccc1)c1cccc(Nc2ncc(F)c(Nc3cccc(C(=O)c4ccccc4)c3)n2)c1 [Compound R950377],5.96
2,Cc1ccc(Nc2ncc(F)c(Nc3ccc(C)c(N)c3)n2)cc1N [Compound R950129],6.88
3,Fc1cc(Nc2ncc(F)c(Nc3ccc4c(c3)OCCO4)n2)cc(C(F)(F)F)c1 [Compound R926894],> 10
4,Fc1cnc(Nc2ccc3c(c2)OCCO3)nc1Nc1ccc(N2CCN(Cc3ccccc3)CC2)cc1 [Compound R945155],7.07
5,Oc1cccc(Nc2ncc(F)c(NC3c4ccccc4-c4ccccc43)n2)c1 [Compound R935020],> 10
6,CNC(=O)c1cc(Nc2nc(NC)ncc2F)ccc1OC [Compound R940304],> 10
7,COc1cc(Nc2ncc(F)c(Nc3cc(OC)c(OC)c(OC)c3)n2)cc(OC)c1OC [Compound R926688],3.78
8,Fc1cnc(NCCc2ccccc2)nc1Nc1ccc2c(c1)OCCO2 (racemic) [Compound R908697],> 10
9,CCOC(=O)C(Nc1ncc(C#N)c(NC(C(=O)OCC)C(C)C)n1)C(C)C (stereo not drawn) [Compound R925814],14.2
10,CCOC(=O)c1cnc(Nc2ccc(CC#N)cc2)nc1Nc1ccc(CC#N)cc1 [Compound R926319],15.6
11,c1ccc(-c2cnc(Nc3ccc4c(c3)OCCO4)nc2Nc2ccc3c(c2)OCCO3)cc1 [Compound R925784],> 10
12,COC(=O)c1cc(N)cc(Nc2ccnc(Nc3cc(N)cc(C(=O)OC)c3)n2)c1 [Compound R950132],4.64
13,Fc1cnc(NCC2COc3ccccc3O2)nc1Nc1ccc2c(c1)OCCO2 (stereo not drawn) [Compound R950206],> 10
14,Fc1cnc(NCc2ccco2)nc1NCc1ccco1 [Compound R925769],> 10
15,COC(=O)c1cc2cc(Nc3ncc(F)c(Nc4ccc5c(c4)OCCO5)n3)ccc2o1 [Compound R926690],13.4
